We go through 80 compounds from the METLIN SMRT retention time set (Domingo-Almenara et al. 2019).

The data set in a line: gradient 5% acetonitrile 3 min, to 50% in 2 min, to 85% in 15 min, held 3 min, 100 µL/min. Particulars: column: Zorbax Extend-C18 2.1 x 50 mm; eluents: water / acetonitrile, 0.1% formic acid. The essentials: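 A Zorbax Extend-C18 column (2.1 × 50 mm, 1.8 μm) run at 100 μL/min with water and acetonitrile, both containing 0.1% formic acid, separated mixtures of ~100 pure standards. The HPLC was coupled to a quadrupole time-of-flight mass spectrometer operated in positive and negative ionization mode, with dead and dwell volumes of 40 μL and 900 μL. Each retention time was taken from a computationally picked adduct peak that was then manually inspected.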
In turn, `CC(C)c1nnc(NC(=O)CCCOc2ccc(Cl)cc2)s1` yielded an RP-LC retention time of 876 s. In turn, `Cc1ccccc1NS(=O)(=O)c1cn(C(C)C)c2ncccc12` gave an RP-LC retention time of 896 s. To `COc1ccc(-c2cc3n(n2)CCCN(S(=O)(=O)c2ccc(NC(C)=O)cc2)C3)cc1` belongs 779 s; to `CCn1cnnc1C1CCN(C(=O)c2ccc3c(c2)OCO3)CC1`, 534 s; to `CCCCCCOC(=O)[C@@]1(O)CC2O[C@]1(C)n1c3ccccc3c3c4c(c5c6ccccc6n2c5c31)C(=O)NC4`, 1230 s. The compound `Cn1cc(-c2ccncc2)cc1C(=O)NCc1ccc(Cl)cc1` showed an RP-LC retention time of 646 s. As to `CCCc1noc(-c2nnn3c2COC(c2ccc(F)cc2)C3)n1` (stereo not given), the RP-LC retention time is 1040 s. To `CN(Cc1ccccc1)C(=O)CN1C(=O)C(C(=O)N2CCCCCC2)Sc2ccccc21` (stereo not given) belongs 945 s; to `Cc1cccn2cc(C(=O)NCCC(C)C)nc12`, 712 s. Consider `CC(C)Cc1nc2cccnc2n1C1CCN(C(=O)Nc2ccccc2)CC1`, for which the RP-LC retention time is 677 s. Turning to `CCC(C)NC(=O)Cn1c(=O)n(CC(C)C)c(=O)c2nscc21` (stereo not given), the RP-LC retention time turned out to be 735 s. Regarding `CN(C(=O)Cn1cnc2c(-c3ccccc3)csc2c1=O)c1ccccc1`, the RP-LC retention time is 911 s. Regarding `CCOc1cccc(Cn2c(=O)c3sccc3n(Cc3nc(-c4ccccc4C)no3)c2=O)c1`, the RP-LC retention time is 1190 s.

For the compound `CCOc1ccc(CNC(=O)c2c(C)sc3ccn(CC)c(=O)c23)cc1`, the RP-LC retention time is 836 s. Consider `CCCn1nnc2cc(-c3noc(C4CC(=O)N(c5cccc(Cl)c5)C4)n3)ccc21` (stereo not given), for which the RP-LC retention time worked out at 994 s. With `COc1ccc(-c2nc(-c3ccc4c(c3)oc(=O)n4C)no2)c(OC)c1`, the RP-LC retention time was determined as 959 s. The result for `O=C(COc1ccc(Br)cc1)NCc1ccc2c(c1)OCCCO2` reads 933 s. The compound `Cc1ccc2nc(-c3ccc(O)cc3)c(Nc3ccc4c(c3)OCO4)n2c1` came in with an RP-LC retention time of 633 s. `CCCOc1nccnc1NC1CCN(C(=O)c2ccco2)CC1` gave an RP-LC retention time of 748 s.

Compound `Cc1[nH]c2ccccc2c1C(=O)C(=O)Nc1ccccc1` had an RP-LC retention time of 816 s. Compound `NS(=O)(=O)c1ccc(CCNS(=O)(=O)c2ccccc2-c2nc(-c3ccccc3)no2)cc1` had an RP-LC retention time of 886 s. In turn, `O=C1NCCCCCCN(C(=O)Nc2ccc3c(c2)OCCO3)[C@H]2CCC[C@@H]12` registered an RP-LC retention time of 749 s. Regarding `Cc1cc(NC(=O)c2ccc(-n3ccnc3)nn2)no1`, the RP-LC retention time stood at 553 s.

For `Cc1cccc(-n2c(N3CCCC(C(=O)Nc4ccc(Cl)cc4)C3)nc3ccsc3c2=O)c1` (stereo not given), the RP-LC retention time stood at 1080 s.

Regarding `O=C(NC(Cc1ccccc1)c1nc2ccccc2[nH]1)c1cccs1` (stereo not given), the RP-LC retention time is 607 s. The result for `CC1CN(c2ccc(Cl)cc2)c2nc3c(c(=O)n(CC(=O)O)c(=O)n3C)n2C1` (stereo not given) reads 790 s; that for `COc1ccc(-c2cc(C(=O)Nc3cc(F)cc(F)c3)sn2)cc1`, 1200 s; that for `CC1=NS(=O)(=O)N(Cc2ccccc2)C=C1C(=O)OCc1nc(-c2ccc(C)cc2)no1`, 1110 s.

The compound `Cc1cc(C)cc(NC(=O)c2cn(C)nc2S(=O)(=O)N2CCSCC2)c1` returned an RP-LC retention time of 1010 s. The result for `CCCNC(=O)Nc1ccc(NC(=O)N2CCC(C(=O)NCC)CC2)cc1` reads 588 s; that for `COc1ccc(N2CC(c3nc(-c4ccncc4)no3)CC2=O)cc1Cl` (stereo not given), 752 s. Compound `CCc1nc(N2CCNCC2)c(C#N)c2c1COC(C)(C)C2` had an RP-LC retention time of 627 s. With `O=C(NCCOc1ccccc1)C(=O)c1c[nH]c2ccccc12`, the RP-LC retention time was 886 s. `O=C(NC1CCCCC1)c1ccc2c(c1)N(Cc1ccccc1)C(=O)CO2` came in with an RP-LC retention time of 921 s. To `CCN(CC)S(=O)(=O)c1ccc(C)c(-c2nnc(-c3ccc(Cl)cc3)o2)c1` belongs 1200 s; to `COCCCNC(=O)Cn1cnc2onc(-c3ccc(Cl)cc3)c2c1=O`, 792 s; to `Cc1ccc(Sc2nccnc2N2CCCC(C(=O)NCCC(C)C)C2)cc1` (stereo not given), 1140 s. For `COc1cc(OC)cc(-c2nc(NC(=O)C3CCCN(c4cnc5ccccc5n4)C3)n[nH]2)c1` (stereo not given), the RP-LC retention time worked out at 1020 s. `CC(C)NC(=O)CN1CCN(C(=O)Nc2ccc(Cl)cc2)CC1=O` returned an RP-LC retention time of 669 s.

Regarding `Cc1cc(C)c(NC(=O)Cn2cc3c(n2)CCCC3)c(C)c1`, the RP-LC retention time turned out to be 969 s.

As for `CCOC(=O)c1[nH]c(C)c(CCC(=O)N2CCC(C(=O)NC3CCCCC3)CC2)c1C`, the RP-LC retention time was 778 s. To `N#Cc1ccc(NC(=O)C2CCN(S(=O)(=O)c3cc(C(=O)N4CCCC4)cs3)CC2)cc1` belongs 792 s. In turn, `CCn1ccnc1N1CCN(C(=O)c2ccccc2C(F)(F)F)CC1` came in with an RP-LC retention time of 555 s.

For `O=C(c1csc(S(=O)(=O)N2CCC(C(=O)N3CCOCC3)CC2)c1)N1CCCCCC1`, the RP-LC retention time came to 718 s. On to `COCCCNS(=O)(=O)c1cc(-c2nc(C)cs2)n(CC(=O)N2CCCCC2)c1`, for which the RP-LC retention time was 824 s. In the case of `Cc1cc(C)n(-c2ccnc(N3CCC(C(N)=O)CC3)n2)n1`, the RP-LC retention time came out at 586 s. The compound `CCc1nn2c(CNC(=O)c3ccc(F)c(Cl)c3)c(-c3ccccc3)nc2s1` had an RP-LC retention time of 1020 s. Turning to `CN1CCN(C(=O)C2CCN(S(=O)(=O)c3cc4c(cc3Cl)NC(=O)CO4)CC2)CC1`, the RP-LC retention time was 580 s. `Cc1c(C(=O)NCc2ccccc2Br)cc(-c2ccccc2)n1C` returned an RP-LC retention time of 1040 s.

In turn, `CCN1C(=O)C(CC(=O)NC2CCCCC2)Sc2ncccc21` (stereo not given) came in with an RP-LC retention time of 743 s.

With `Cc1cc(C)cc(NS(=O)(=O)c2ccc(-c3nnc(C4CCC4)o3)o2)c1`, the RP-LC retention time is 996 s. For `CCN1CCCn2cc(S(=O)(=O)Nc3ccc(F)c(C)c3)cc2C1=O`, the RP-LC retention time stood at 755 s. Turning to `O=C(NCc1cccs1)c1c(O)c2cccnc2n(-c2cccc(F)c2)c1=O`, the RP-LC retention time came out at 1120 s. In turn, `CCS(=O)(=O)N1C[C@@H](COC)[C@H](C(N)=O)C1` came in with an RP-LC retention time of 560 s.

Regarding `CCn1ccc(-c2nc(-c3cccc(-c4csc(C5CC5)n4)c3)no2)n1`, the RP-LC retention time was 1220 s.

`COC(=O)c1nc(NC(=O)Cn2nc3c(cc2=O)CCCC3)sc1-c1ccccc1` returned an RP-LC retention time of 827 s. With `CCc1cccc(NC(=O)Nc2c(-c3ccncc3)nc3ccccn23)c1`, the RP-LC retention time was determined as 630 s. The compound `CC1CS(=O)(=O)N(c2ccc(C(=O)N3CCN(c4ccccn4)CC3)cc2)C1=O` (stereo not given) came in with an RP-LC retention time of 554 s. For `COc1cccc(OCC(=O)N2CC(=O)Nc3ccccc32)c1`, the RP-LC retention time is 869 s. The result for `Cc1c(Cl)cccc1NC(=O)C1CCCN(c2nc3c(s2)c(C)nn3-c2ccccc2)C1` (stereo not given) reads 1250 s; that for `O=c1c(S(=O)(=O)N2CCCC2)cccn1Cc1ccccc1Cl`, 860 s; that for `Cc1cccc(Cn2c(C)c(CNCc3ccco3)c(C(=O)O)c2C)c1`, 697 s. Compound `O=C(Cn1cnc2nc(N3CCCC(C(=O)NC4CC4)C3)sc2c1=O)Nc1ccc2c(c1)OCO2` (stereo not given) returned an RP-LC retention time of 659 s. For the compound `O=C(Nc1ccc(F)cc1F)N1CCCC1c1nc(-c2ccc(F)cc2F)no1` (stereo not given), the RP-LC retention time came to 946 s.

`CCCNC(=O)C1CCN(c2ccc(SCC(=O)Nc3cc(Cl)ccc3OC)nn2)CC1`: the RP-LC retention time was 730 s. The result for `COc1ccc(NC(=O)N2CCCC2c2nc(-c3ccc(F)cc3F)no2)cc1Cl` (stereo not given) reads 982 s; that for `O=C(NC1CC1)C1CCN(c2nc3ccc(-c4cncnc4)nc3s2)CC1`, 672 s. The compound `CCOCC(=O)N1CCCN(C2=NS(=O)(=O)C(c3ccc(C)cc3)=C2C)CC1` returned an RP-LC retention time of 752 s. In the case of `Cc1ccc(-c2ncccc2CNS(=O)(=O)c2ccc(Cl)cc2)cc1`, the RP-LC retention time was found to be 766 s. The result for `CCN1CCC2(CC1)OC(=O)C(C)=C2C(=O)NCCCN1CCC(Cc2ccccc2)CC1` reads 583 s; that for `O=C(NCCc1nc2cccnc2n1-c1ccccc1)c1ccccc1`, 708 s. `Cc1nn(C)c(C)c1S(=O)(=O)N1CCC(Cc2nc(-c3cccnc3)n[nH]2)C1` (stereo not given) had an RP-LC retention time of 598 s.

On to `O=C(NCCc1c[nH]c2ccccc12)C1CCN(c2ccncc2)CC1`, for which the RP-LC retention time was found to be 610 s. Consider `COc1ccc(Br)cc1CNC(=O)Cn1cnc2nc3c(cc2c1=O)CCCC3`, for which the RP-LC retention time was found to be 777 s. In the case of `Cn1nc(-c2nnc(-c3ccccc3F)o2)c2c1CCN(S(=O)(=O)c1ccccc1Cl)C2`, the RP-LC retention time was 928 s. In turn, `COc1ccc(-c2noc(-c3cccn3CC(=O)NCc3ccco3)n2)cc1F` registered an RP-LC retention time of 984 s. As for `CC(=O)NCC(=O)N1CC(F)(F)C[C@H]1c1nc(C2CC2)no1`, the RP-LC retention time amounted to 639 s. In the case of `Cc1cccc(C)c1NC(=O)NCc1ccco1`, the RP-LC retention time is 790 s. The compound `O=S(=O)(Cc1cccc(Cl)c1)NCCc1noc(-c2ccccc2)n1` gave an RP-LC retention time of 971 s. On to `Cc1cc(C(=O)NCC(C)C)c2cc(Cl)ccc2n1`, for which the RP-LC retention time was 784 s.
